# Test results published in ChEMBL document CHEMBL3045334, “Microwave-assisted synthesis and evaluation of naphthalimides derivatives as free radical scavengers” (Med Chem Res, 2011).
# System: Radical scavenging activity
# Experiment: Antioxidant activity assessed as DPPH radical scavenging activity
# Type: functional
# Conditions: not given; call rule not given here
row,SMILES,IC50
1,O=C1OC(=O)c2ccc(Br)c3cccc1c23,Not Active

# Same assay, conditions: read-out: IC50
row,SMILES,IC50 [µM]
1,CCCNc1ccc2c3c(cccc13)C(=O)N(C[C@@]1(C)CCC[C@]3(C)c4ccc(C(C)C)cc4CCC13)C2=O (some centres not stated),210
2,CCCCNc1c([N+](=O)[O-])cc2c3c(cccc13)C(=O)N(CCCC)C2=O,215
3,O=C1c2cccc3c(NCCO)c([N+](=O)[O-])cc(c23)C(=O)N1CCO,231
4,CC(C)c1ccc2c(c1)CCC1[C@@](C)(CN3C(=O)c4cccc5c(Br)ccc(c45)C3=O)CCC[C@]21C (some centres not stated),208
5,O=C1c2cccc3c(NCc4ccccc4)ccc(c23)C(=O)N1Cc1ccccc1,84.6
6,O=C1c2cccc3c(Br)ccc(c23)C(=O)N1Cc1ccccc1,238
7,CC(C)c1ccc2c(c1)CCC1[C@@](C)(CN3C(=O)c4cccc5c(NCc6ccccc6)ccc(c45)C3=O)CCC[C@]21C (some centres not stated),61.9
8,CCCCNc1ccc2c3c(cccc13)C(=O)N(CCCC)C2=O,320
9,CCCNc1ccc2c3c(cccc13)C(=O)N(CCC)C2=O,351
10,O=C1c2cccc3c(NCc4ccccc4)c([N+](=O)[O-])cc(c23)C(=O)N1Cc1ccccc1,43.1
11,O=C1c2cccc3cccc(c23)C(=O)N1Cc1ccccc1,143
12,Cc1cc(C(C)(C)C)c(O)c(C(C)(C)C)c1 [BUTYLATED HYDROXYTOLUENE],65.8
13,O=C1c2cccc3cccc(c23)C(=O)N1Nc1ccccc1,147
14,CC(C)c1ccc2c(c1)CCC1[C@@](C)(CN3C(=O)c4cccc5c(NCCO)ccc(c45)C3=O)CCC[C@]21C (some centres not stated),221
15,O=C1c2cccc3cccc(c23)C(=O)N1c1ccccc1,130
16,O=C1NC(=O)c2cccc3cccc1c23,149
17,O=C1c2cccc3cccc(c23)C(=O)N1CCO,155
18,CCCCN1C(=O)c2cccc3cccc(c23)C1=O,183
19,CCCN1C(=O)c2cccc3cccc(c23)C1=O,179
20,NN1C(=O)c2cccc3cccc(c23)C1=O,187
21,Cc1ccc(Nc2c([N+](=O)[O-])cc3c4c(cccc24)C(=O)N(c2ccc(C)cc2)C3=O)cc1,42.2
22,O=C1OC(=O)c2cc([N+](=O)[O-])c(Br)c3cccc1c23,54
23,CCCNc1c([N+](=O)[O-])cc2c3c(cccc13)C(=O)N(CCC)C2=O,231
24,"O=C1OC(=O)c2cccc3cccc1c23 [1,8-NAPHTHALIC ANHYDRIDE]",1770
25,CC(C)c1ccc2c(c1)CCC1[C@@](C)(CN3C(=O)c4cccc5cccc(c45)C3=O)CCC[C@]21C (some centres not stated),166
26,CCCCNc1ccc2c3c(cccc13)C(=O)N(C[C@@]1(C)CCC[C@]3(C)c4ccc(C(C)C)cc4CCC13)C2=O (some centres not stated),206
